From publication PMC3187750, “Functional Analysis of the Cytoskeleton Protein MreB from Chlamydophila pneumoniae” (PLoS ONE, 2011)

Legend:
[1] = target: T1, MreB from C. pneumoniae (chlamydial MreB) (Chlamydia pneumoniae, UniProt A0ABN3YSA6); details: 5 µM MreB, 200 µM ATP; polymerizing (5 mM MgCl2, pH 7) and monomeric (no MgCl2, pH 8) conditions
T1 sequence (A0ABN3YSA6 2-366): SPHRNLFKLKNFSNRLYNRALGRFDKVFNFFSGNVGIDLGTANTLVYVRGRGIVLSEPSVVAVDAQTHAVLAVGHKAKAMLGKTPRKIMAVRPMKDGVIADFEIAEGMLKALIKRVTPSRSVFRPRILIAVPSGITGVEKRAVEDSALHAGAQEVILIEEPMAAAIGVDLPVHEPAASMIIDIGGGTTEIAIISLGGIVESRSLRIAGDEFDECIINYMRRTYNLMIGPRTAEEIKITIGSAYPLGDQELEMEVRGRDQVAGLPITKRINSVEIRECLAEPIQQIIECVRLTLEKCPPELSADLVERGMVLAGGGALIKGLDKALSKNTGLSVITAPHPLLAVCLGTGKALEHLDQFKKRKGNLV

[2] = target: T1, MreB from C. pneumoniae (chlamydial MreB); assay: light scattering polymerization assay; assay type: biochemical; set-up: pET-21b, EcoRI/XhoI, C-terminal His6 tag kept; expressed in E. coli BL21(DE3); Ni-NTA purified; details: standard polymerization conditions (5 µM MreB, 5 mM MgCl2, pH 7, 20 °C)

SMILES	phosphate release, molybdate-malachite green assay [1]	light scattering polymerization assay [2]
Nc1ncnc2c1ncn2[C@@H]1O[C@H](COP(=O)(O)OP(=O)(O)OP(=O)(O)O)[C@@H](O)[C@H]1O [ATP]	The C345A mutant and wild-type MreB proteins hydrolyzed ATP without marked differences	
Nc1nc2c(ncn2[C@@H]2O[C@H](COP(=O)(O)OP(=O)(O)OP(=O)(O)O)[C@@H](O)[C@H]2O)c(=O)[nH]1 [GTP]		In the presence of GTP, the kinetics and extent of wild-type MreB polymerization was impaired
